Numbers after ± are expanded uncertainties.
Key:
[1] = refractive index (Na D-line) (dimensionless); mn = molality of the nth substance listed, in mol/kg; details: 293.15 K; 101 kPa; Liquid; Standard Abbe refractometry; m1 = 0.02
[2] = 298 K; 101.33 kPa; Crystal; X-ray diffraction

refractive index [1] | mass density [2] [kg/m3] | Compound
1.3308 ± 0.0007 | – | CC(=O)C(=O)[O-].[Na+] [sodium pyruvate] + O
– | 1749 ± 9 | CC(=O)C(=O)[O-].[Na+] [sodium pyruvate]
